Results taken from patent US5486532A, “Benzospiroalkenes” (Adir et Compagnie, priority 1993, dated 1996).

What was measured:
dog femoral arteries = experiment: Contraction of isolated dog femoral arteries; details: Canis lupus familiaris; for EC50: dog femoral artery rings, cumulative doses; for Emax: maximum contraction relative to 100 mM KCl, dog femoral artery, read-out: ARTERY Max
Protocol: (§1) The technique used is based on that described by Fowler et al. (J. Pharmacol. Exp. Ther., 229, 712-718, 1984). Male or female mongrel dogs of approximately 15-25 kg were used as organ sources. The animals are anesthetized with pentobarbital (30 mg/kg intravenously). The legs are incized and the blood vessels removed. They are placed in Krebs-Ringer liquid (118 mM NaCl; 25 mM NaHCO3; 10 mM Glucose; 4.7 mM KCl; 1.25 mM CaCl2; 1.19 mM MgSO4; 1.14 mM KH2 PO4) at room temperature and under a sparge of carbogen (95% O2, 5% CO2). These blood vessels are then carefully freed of their fat and then cut into rings 2 mm wide and mounted under a base tension of 4 g (femoral arteries) or 1 g (saphena veins) in tanks thermostated at 37° C. containing Krebs-Ringer liquid and constantly sparged with carbogen. A lower hook constitutes the fixed point, whereas the upper hook is connected to an isometric force sensor. The variations in tension are digitized, stored on disk and processed by an information technology system. After mounting, the organs are left to rest for 90 minutes, with rinses being carried out every 30 min. After readjustment of the base tension, a contraction is induced by a single dose of KCl (100 mM). After stabilization, washing and returning to the base line, a contraction is provoqued by a single dose of phenylephrine (submaximal concentration) in order to regulate the following contractions. After washing and returning to the baseline, an effect/concentration curve is produced by addition of cumulative doses of agonist (the space between the doses is a semi-log). This experiment makes it possible to calculate the 50% effective concentration (EC50) in the following way: the tension values are first of all converted to percentages relative to the maximum effect induced by 100 mM of KCl. This EC50 is determined by non-linear regression by the SIMPLEX method (M. S. Caceci, Byte, 340-362, 1984), calculated according to the mass action law model of L. Michaelis and M. L. Menten (Biochem. Zeitschrift, 49, 333-369, 1913).
(§2) E=(Emax*C^n)(EC^n +C^n) with E=effect; Emax=maximum effect; C=concentration; EC=EC50; n=Hill number
(§3) The products of the invention contract dog arteries and veins. The maximum for these contractions approaches that obtained with KCl.

saphena veins = experiment: Contraction of isolated dog saphena veins; details: Canis lupus familiaris; for EC50: dog saphena vein rings, cumulative doses; for Emax: maximum contraction relative to 100 mM KCl, dog saphena vein, read-out: VEIN Max
Protocol: as §1, §2, §3

[1] = test system: arterial pressure in amyelated rats; experiment: In vivo study in amyelated rats, arterial pressure; parameters: species or system Sprague Dawley rats; details: Rattus norvegicus, iv, tertatolol pretreated, no prazosin or yohimbine, read-out: C20 Control (concentration which increases the pressure by 20 mmHg)
From the text: (§4) Male Sprague Dawley rats (300-400 g) are anesthetized with ether. The trachea is cannulated, the spinal column is destroyed using a stainless-steel rod and the animal is 1. 5 immediately placed under artificial respiration. The vagus nerves are dissected. The carotid arteries are ligatured and a catheter is placed in one and serves to record the arterial pressure. Three other catheters are placed in the jugular veins and in the vein of the penis and serve for the injections. The temperature of the animals is maintained at 36° C. The animal is pretreated by an injection of tertatolol […]. The animal is also pretreated 10 minutes later with prazosin ([…]) or yohimbine (1 mg/kg) when it is desired to determine the alpha1 - or alpha2-adrenergic properties of the product. Ten minutes later, increasing cumulative doses of product are injected every 20 seconds. The variations in arterial pressure are detected using a Statham P23XL pressure cell and are recorded. The pressure values are expressed in mmHg. This experiment makes it possible to calculate the concentration which increases the pressure by 20 mmHg (C20) by non-linear regression according to the mass action law model of Michaelis and Menten as described above. The maximum effect obtained is subsequently convened to a percentage relative to the maximum effect induced by phenylephrine. The alpha1 - or alpha2-adrenergic components of the product are evaluated using the C20 ratio obtained in the presence of prazosin or yohimbine on the values obtained in the absence of these antagonists. In amyelated rats, the products of the invention produce hypertensions which are sensitive to prazosin and to yohimbine.

alpha1-adrenergic = experiment: Amyelated rats, alpha1-adrenergic component (C20 ratio with prazosin); type: in vivo, Sprague Dawley rats; details: pretreated with prazosin
From the text: as §4

alpha2-adrenergic = experiment: Amyelated rats, alpha2-adrenergic component (C20 ratio with yohimbine); type: in vivo, Sprague Dawley rats; details: pretreated with yohimbine (1 mg/kg)
From the text: as §4

EC50 (dog femoral arteries)	EC50 (saphena veins)	Compound	Emax (dog femoral arteries)	Emax (saphena veins)	ED (20 mmHg) [1]	Ratio treated C20 / control C20, Prazosin (alpha1-adrenergic)	Ratio treated C20 / control C20, Yohimbine (alpha2-adrenergic)
2 µM	7 µM	Clc1cccc2c1CC1(CC2)CNC=N1 (single isomer, unassigned) [Example 6, Spiro[(1,3-diazacyclopent-1-ene)-5:2'-(8'-chloro-1',2',3', 4'-tetrahydronaphthalene)]L-(+)-tartrate, αisomer]	91%	96%	0.1 µg/kg	1.7	4.0
1 µM	0.2 µM	Clc1cccc2c1CC1(CC2)CNC=N1 (centres unmarked) [Example 1, Spiro[(1,3-diazacyciopent-1-ene)-5:2'-(8'-chloro-1', 2',3',4'-tetrahydronaphthalene)]fumarate]	94%	95%	0.2 µg/kg	1.9	6.0
